# Results: patent US10041937B2, “Macrophage identification agent, and identification method, sorting method, evaluation method, screening method and kit using the macrophage identifier agent” (CANON KABUSHIKI KAISHA, priority 2013, dated 2018)
# Tested on: M1 macrophages and M2 macrophages differentiated from RAW264.7 cells
# Assay: Identification of macrophage subtypes differentiated from mouse cell line RAW264.7
# Assay type: cell-based
# Conditions: RAW264.7 derived M1 and M2
# Description: The subtypes were identified by using the compound (1) in the same manner as in Example 1 except that the macrophage subtypes differentiated from the mouse bone marrow cells were changed to macrophage subtypes differentiated from a cell line established from mouse monocytic leukemia.
# The culture of subtypes was performed with reference to NPL 9. Specifically, RAW264.7 cells purchased from American Type Culture Collection, that is, a cell line established from mouse monocytic leukemia, were subcultured several times, and the resultant cells were dispersed to a concentration of 3.3×10^4/mL in a D-MEM containing 10% FBS, 1% P/S and 1% MEM-NEAA, and 3.3×10^5 cells were seeded in a 100 mm dish. The cells were grown by incubation performed in the presence of 5% CO2 at 37° C. After 2 to 4 days, it was confirmed that an area of about to 70% of the bottom of the dish had been covered by the cells, the medium was then exchanged, and by adding 200 ng of interferon-γ and 1 μg of polyliposaccharide (both manufactured by Pepro Tech) to the medium, the cells were differentiated to the subtype M1. Besides, by adding 100 ng of IL-4, the cells were differentiated to the subtype M2. […]
# A histogram was prepared by plotting fluorescence intensity obtained in the FITC channel on the abscissa and plotting the number of cells at each fluorescence intensity on the ordinate, which is shown in FIG. 9.
compound,measurement,value
CCOC(=O)CCN1C(=O)/C(=C\c2ccc3c(c2)C2CCCC2N3CC)SC1=S (stereo not shown) [compound (1)],subtype more strongly stained,the M1 macrophages were stained more strongly than the M2 macrophages
